In one test the test system is THP-1 cells. Kind of test: Measurement of IL-1β production, hTRF protocol (second alternative procedure), THP-1 cells. As to conditions: Homo sapiens. In kind it is cell-based, human. In outline: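 THP-1 cells differentiated overnight with 50 ng/ml PMA, then plated at 50,000 cells/well in RPMI with 2% FBS onto serial compound dilutions (top final concentration 10 μM) for 2 hours at 37° C. Supernatant IL-1β measured by hTRF (antibodies at 1:40, overnight at 4° C), read at 665/615 nm against a standard curve.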

The next test addresses T1, TLR7 (Homo sapiens, UniProt Q9NYK1).
T1 construct: human HEK-Blue cells co-expressing a TLR7 or TLR8 gene
T1 sequence (Q9NYK1 27-1049): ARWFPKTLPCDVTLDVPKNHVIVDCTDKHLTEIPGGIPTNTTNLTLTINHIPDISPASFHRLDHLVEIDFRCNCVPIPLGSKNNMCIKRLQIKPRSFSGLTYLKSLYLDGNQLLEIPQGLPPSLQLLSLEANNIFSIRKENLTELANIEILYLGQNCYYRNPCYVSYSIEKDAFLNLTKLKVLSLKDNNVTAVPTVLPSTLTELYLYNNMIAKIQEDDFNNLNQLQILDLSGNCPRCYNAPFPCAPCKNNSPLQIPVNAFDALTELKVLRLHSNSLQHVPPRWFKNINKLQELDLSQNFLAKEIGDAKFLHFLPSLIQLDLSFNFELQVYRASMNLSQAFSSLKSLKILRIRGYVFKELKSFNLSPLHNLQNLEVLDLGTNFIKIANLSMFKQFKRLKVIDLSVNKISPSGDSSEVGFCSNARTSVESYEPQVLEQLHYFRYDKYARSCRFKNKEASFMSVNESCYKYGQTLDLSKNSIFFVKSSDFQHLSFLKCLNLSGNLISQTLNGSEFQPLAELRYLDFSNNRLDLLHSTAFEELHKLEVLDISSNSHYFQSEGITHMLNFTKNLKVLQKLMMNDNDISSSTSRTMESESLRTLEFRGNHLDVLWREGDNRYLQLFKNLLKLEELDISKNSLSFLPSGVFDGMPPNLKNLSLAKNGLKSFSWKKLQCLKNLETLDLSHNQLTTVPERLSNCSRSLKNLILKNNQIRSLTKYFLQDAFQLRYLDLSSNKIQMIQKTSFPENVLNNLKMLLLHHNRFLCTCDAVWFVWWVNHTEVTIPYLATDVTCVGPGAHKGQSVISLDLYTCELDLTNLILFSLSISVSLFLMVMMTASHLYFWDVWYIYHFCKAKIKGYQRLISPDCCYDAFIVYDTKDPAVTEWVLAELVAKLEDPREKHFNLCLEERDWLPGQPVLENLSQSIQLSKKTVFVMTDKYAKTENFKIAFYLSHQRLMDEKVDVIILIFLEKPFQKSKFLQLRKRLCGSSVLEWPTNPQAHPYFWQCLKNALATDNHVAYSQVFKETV
Kind of test: In vitro human TLR7 binding reporter assay (HEK-Blue, NF-kB/AP1-inducible SEAP). Format: cell-based. As to conditions: read-out: TLR7 Agonist EC50. The gist of the method: (§1)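 Cells are seeded and grown for 24 h. Compounds or DMSO are then added and incubated 18 h at 37 °C. Quanti-Blue is added, and SEAP is read after thirty minutes. EC50 values are normalized, with RLU from 50 μM reference standard setting 100% Ymax.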
(In general: A reporter such as luciferase makes a cellular process visible.)

In another test the target is T2, TLR8 (Homo sapiens, UniProt Q9NR97).
T2 construct: human HEK-Blue cells co-expressing a TLR7 or TLR8 gene
T2 sequence (Q9NR97 27-1041): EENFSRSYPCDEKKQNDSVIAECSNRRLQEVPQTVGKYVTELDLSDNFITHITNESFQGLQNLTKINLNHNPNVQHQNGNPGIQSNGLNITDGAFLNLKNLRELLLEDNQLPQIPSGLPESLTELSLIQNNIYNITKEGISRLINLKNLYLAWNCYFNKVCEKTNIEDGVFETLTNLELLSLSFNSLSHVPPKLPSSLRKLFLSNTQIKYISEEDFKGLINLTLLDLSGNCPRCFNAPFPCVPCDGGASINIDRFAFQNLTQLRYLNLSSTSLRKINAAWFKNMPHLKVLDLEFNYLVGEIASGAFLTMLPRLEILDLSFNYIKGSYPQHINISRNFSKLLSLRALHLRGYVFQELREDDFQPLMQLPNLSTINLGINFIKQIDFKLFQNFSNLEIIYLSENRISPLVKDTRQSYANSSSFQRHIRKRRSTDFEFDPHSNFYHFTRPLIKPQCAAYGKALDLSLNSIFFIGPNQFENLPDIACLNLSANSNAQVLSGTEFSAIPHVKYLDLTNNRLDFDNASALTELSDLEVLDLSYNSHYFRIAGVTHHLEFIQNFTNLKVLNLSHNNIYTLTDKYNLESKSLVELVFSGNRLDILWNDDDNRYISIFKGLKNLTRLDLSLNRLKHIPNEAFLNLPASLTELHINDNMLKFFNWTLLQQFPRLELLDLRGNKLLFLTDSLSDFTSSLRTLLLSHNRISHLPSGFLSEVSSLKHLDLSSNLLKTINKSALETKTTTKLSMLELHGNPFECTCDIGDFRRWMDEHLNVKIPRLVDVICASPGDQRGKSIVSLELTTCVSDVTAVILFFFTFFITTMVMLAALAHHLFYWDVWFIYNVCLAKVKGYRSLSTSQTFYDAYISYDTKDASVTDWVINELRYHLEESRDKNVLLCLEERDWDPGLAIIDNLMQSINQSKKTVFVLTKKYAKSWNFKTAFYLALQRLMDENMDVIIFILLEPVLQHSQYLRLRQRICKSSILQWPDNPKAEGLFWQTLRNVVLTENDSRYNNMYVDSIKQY
Kind of test: In vitro human TLR8 binding reporter assay (HEK-Blue, NF-kB/AP1-inducible SEAP). In kind it is cell-based. As to conditions: read-out: TLR8 Agonist EC50. In outline:
as §1

The mark [1] stands for this setting: THP-1, IL-1β production, human, read-out: NLRP3 hILIB EC50.
Where [2] appears, read: THP-1, read-out: NLRP3 hILIB EC50.
The mark [3] stands for this setting: THP-1, IL-1β production, human cells, read-out: NLRP3 hILIB EC50.

The source of these data is patent US12037344B2, “NLRP3 modulators” (INNATE TUMOR IMMUNITY, INC., priority 2018, dated 2024).

Structures can show the parent of a compound that is named as a salt. Where two headings read alike, the source gives them in different places.

A word on the EC50: it is the concentration that produces a half-maximal response. On to `COCCOCCn1cc2c(N)nc3cc(-c4cc[nH]n4)ccc3c2n1` [Example 310], for which the results for the EC50 with THP-1 cells (setting [1]), at TLR7 (activity range class) and at TLR8 (activity range class) were 0.75 µM, > 100 µM and > 100 µM, respectively.

`Nc1nc2cc(-c3ccn[nH]3)ccc2c2oc(CCCO)nc12` [Example 147, 3-[4-amino-7-(1H-pyrazol-3-yl)-[1,3]oxazolo[4,5-c]quinolin-2-yl]propan-1-ol]: the EC50 in the test with THP-1 cells (setting [2]) is 6.09 µM; on TLR7 (activity range class) it was > 100 µM; at TLR8 (activity range class), > 100 µM.

With `CN(C)C(=O)NCCn1cc2c(n1)c(N)nc1cc(-c3cc[nH]n3)ccc12` [Example 116, 1-{2-[4-amino-7-(1H-pyrazol-3-yl)-2H-pyrazolo[3,4-c]quinolin-2-yl]ethyl}-3,3-dimethylurea], the results for the EC50 in the test with THP-1 cells (setting [2]), at TLR7 (activity range class) and at TLR8 (activity range class) were 7.43 µM, > 100 µM and > 100 µM, respectively.

Turning to `CN(C(=O)Cn1cc2c(n1)c(N)nc1cc(-c3cc[nH]n3)ccc12)[C@H]1CCOC1` [Example 549], the EC50 is 3.95 µM in the test with THP-1 cells (setting [3]), > 100 µM at TLR7 (activity range) and > 100 µM at TLR8 (activity range).

Turning to `C[C@H](CO)Cn1ncc2c(N)nc3cc(-c4cc[nH]n4)ccc3c21` [Example 232], the values for the EC50 in the test on THP-1 cells (setting [1]), at TLR7 (activity range class) and at TLR8 (activity range class) were 1.87 µM, > 100 µM and > 100 µM, respectively.

For the molecule `Nc1nc2cc(-c3ccn[nH]3)ccc2c2nn(CC3(C(=O)NCC(F)F)CC3)cc12` [Example 606], the EC50 is 2.46 µM in the test on THP-1 cells (setting [3]), > 100 µM on TLR7 (activity range) and > 100 µM at TLR8 (activity range).

For the molecule `CC(C)(CCO)n1cc2c(N)nc3cc(-c4cc[nH]n4)ccc3c2n1` [Example 410, 3-(4-amino-7-(1H-pyrazol-3-yl)-2H-pyrazolo[4,3-c]quinolin-2-yl)-3-methylbutan-1-ol, TFA], the EC50 with THP-1 cells (setting [3]) is 0.33 µM; on TLR7 (activity range), > 100 µM; at TLR8 (activity range), > 100 µM.

For the molecule `CCN1CCOCC1Cn1cc2c(N)nc3cc(-c4ccn[nH]4)ccc3c2n1` (stereo not drawn) [Example 263], the EC50 with THP-1 cells (setting [1]) is 1.66 µM; at TLR7 (activity range class) it was > 100 µM; at TLR8 (activity range class), > 100 µM.

Regarding `CC(CC(=O)NCC1CCOCC1)n1cc2c(N)nc3cc(-c4cc[nH]n4)ccc3c2n1` (stereo not drawn) [Example 624], the EC50 with THP-1 cells (setting [3]) was 19.9 µM; at TLR7 (activity range), > 100 µM; at TLR8 (activity range) it was > 100 µM.

For `Nc1nc2cc(-c3cc[nH]n3)ccc2c2cn(CCNC(=O)CO)nc12` [Example 35], the EC50 with THP-1 cells (setting [1]) is 20.7 µM; on TLR7 (activity range class) it was 20 to 100 µM; at TLR8 (activity range class), > 100 µM.

With `Nc1nc2cc(-c3cc[nH]n3)ccc2c2nn(CCC(F)(F)F)cc12` [Example 348], the EC50 with THP-1 cells (setting [1]) is 0.62 µM; at TLR7 (activity range class), > 100 µM; at TLR8 (activity range class), > 100 µM.

`Nc1nc2cc(-c3cc[nH]n3)ccc2c2cn(CCNC(=O)c3ccc(F)c(Cl)n3)nc12` [Example 89]: the EC50 with THP-1 cells (setting [1]) was 0.12 µM; on TLR7 (activity range class), > 100 µM; at TLR8 (activity range class), 1 to 20 µM.

`Nc1nc2cc(-c3cc[nH]n3)ccc2c2nn(C3CCOCC3)cc12` [Example 236]: the EC50 was 0.79 µM in the test on THP-1 cells (setting [1]), > 100 µM on TLR7 (activity range class) and > 100 µM on TLR8 (activity range class).

Turning to `Nc1nc2cc(-c3cc[nH]n3)ccc2c2nn(CCN3Cc4ccc(F)cc4C3=O)cc12` [Example 205, 2-(2-(4-amino-7-(1H-pyrazol-3-yl)-2H-pyrazolo[4,3-c]quinolin-2-yl)ethyl)-6-fluoroisoindolin-1-one], the EC50 in the test on THP-1 cells (setting [1]) was 2.04 µM; at TLR7 (activity range class), > 100 µM; at TLR8 (activity range class) it was > 100 µM.

As for `Nc1nc2cc(-c3cc[nH]n3)ccc2c2[nH]c(CN3C[C@H]4CC[C@@H](C3)O4)cc12` [Example 473], the figures for the EC50 with THP-1 cells (setting [3]), at TLR7 (activity range) and at TLR8 (activity range) were 0.49 µM, > 100 µM and > 100 µM, respectively.

Regarding `CN1CCN(C(=O)CCn2cc3c(N)nc4cc(-c5cc[nH]n5)ccc4c3n2)CC1` [Example 505], the EC50 was 29.6 µM with THP-1 cells (setting [3]), > 100 µM on TLR7 (activity range) and > 100 µM on TLR8 (activity range).

As for `Nc1nc2cc(-c3cc[nH]n3)ccc2c2cn(CCN3Cc4ccc(F)cc4C3=O)nc12` [Example 103, 2-{2-[4-amino-7-(1H-pyrazol-3-yl)-2H-pyrazolo[3,4-c]quinolin-2-yl]ethyl}-6-fluoro-2,3-dihydro-1H-isoindol-1-one], the EC50 with THP-1 cells (setting [1]) was 0.65 µM; on TLR7 (activity range class), > 100 µM; on TLR8 (activity range class), > 100 µM.

Take `Nc1nc2cc(-c3cc[nH]n3)ccc2c2cn(C[C@@H](O)CO)nc12` [Example 398]: the EC50 is 1.55 µM in the test on THP-1 cells (setting [3]), > 100 µM on TLR7 (activity range) and > 100 µM at TLR8 (activity range).

In the case of `N#CCCCn1cc2c(N)nc3cc(-c4cc[nH]n4)ccc3c2n1` [Example 392], the values for the EC50 with THP-1 cells (setting [1]), on TLR7 (activity range class) and at TLR8 (activity range class) were 0.08 µM, > 100 µM and > 100 µM, respectively.

Regarding `Nc1nc2cc(-c3cc[nH]n3)ccc2c2cn(CCCNC(=O)c3ccc(F)cn3)nc12` [Example 125], the EC50 with THP-1 cells (setting [1]) is 8.34 µM; on TLR7 (activity range class), > 100 µM; at TLR8 (activity range class) it was > 100 µM.

With `Nc1nc2cc(-c3cc[nH]n3)ccc2c2nn(CCOCC(F)(F)F)cc12` [Example 333], the EC50 in the test with THP-1 cells (setting [1]) is 0.24 µM; on TLR7 (activity range class), > 100 µM; at TLR8 (activity range class), > 100 µM.

With `Nc1nc2cc(-c3ccn[nH]3)ccc2c2sc(CCCOCc3ccccc3)nc12` [Example 141, 2-[3-(benzyloxy)propyl]-7-(1H-pyrazol-3-yl)-[1,3]thiazolo[4,5-c]quinolin-4-amine], the EC50 is 6.28 µM in the test on THP-1 cells (setting [1]), > 100 µM at TLR7 (activity range class) and ≤ 1 µM on TLR8 (activity range class).

Regarding `Nc1nc2cc(-c3cc[nH]n3)ccc2c2cn(Cc3cccnc3)nc12` [Example 167], the EC50 with THP-1 cells (setting [1]) is 0.15 µM; on TLR7 (activity range class), > 100 µM; at TLR8 (activity range class), > 100 µM.

In the case of `Nc1nc2cc(-c3cc[nH]n3)ccc2c2nn(CC(O)CC(F)(F)F)cc12` (single isomer, unassigned) [Example 378], the values for the EC50 in the test on THP-1 cells (setting [1]), on TLR7 (activity range class) and at TLR8 (activity range class) were 0.64 µM, > 100 µM and > 100 µM, respectively.

Turning to `Cc1nc(C(=O)NCCn2cc3c(n2)c(N)nc2cc(-c4cc[nH]n4)ccc23)c(C(F)(F)F)o1` [Example 71], the EC50 is 0.81 µM with THP-1 cells (setting [1]), 20 to 100 µM on TLR7 (activity range class) and 20 to 100 µM on TLR8 (activity range class).
